IC50 data for 3 molecules are collected here from ChEMBL document CHEMBL2331498, “Mycoleptodiscins A and B, cytotoxic alkaloids from the endophytic fungus Mycoleptodiscus sp. F0194” (J Nat Prod, 2013).

One experiment deals with IMR-90. Description: Cytotoxicity against human IMR90 cells after 96 hrs by CellTiter-Glo assay. It is filed as cell-based. As to conditions: IMR-90, 96 h. On the technique in general: Cellular ATP, detected with luciferase, serves as a proxy for viable cell number.
In another experiment the test system is PC-3. Description: Cytotoxicity against human PC3 cells after 96 hrs by CellTiter-Glo assay. The class given is functional, cell-based. As to conditions: PC-3, 96 h.
The next experiment concerns A2058. Put plainly: Cytotoxicity against human A2058 cells after 96 hrs by CellTiter-Glo assay. The class given is functional, cell-based. The following applies: A2058, 96 h.
Experiment [1] can be described thus: Cytotoxicity against human H522-T1 cells after 96 hrs by CellTiter-Glo assay. The class given is functional, cell-based. The following applies: H522-T1, 96 h.
Experiment [2] in a line: Cytotoxicity against human H460 cells after 96 hrs by CellTiter-Glo assay. The class given is functional, cell-based. As to conditions: NCI-H460, 96 h.

Usually IC50 stands for the concentration that inhibits the measured activity by half. Lower therefore signals greater potency in that assay.

For `N#CC(=O)C#N` [CARBONYL CYANIDE], half-maximal inhibition in the experiment with IMR-90 (IC50) was put at 5000 nM.
For `CC1(C)CCC[C@@]2(C)C1CC[C@@]1(C)C3=CC(=O)C(=O)c4[nH]cc(c43)C[C@@]12O` (some centres undefined) [MYCOLEPTODISCIN B], the IC50 with IMR-90 turned out to be 410 nM; in the experiment on PC-3, 600 nM; in the experiment with A2058 it was 780 nM; in experiment [1], 630 nM; in experiment [2], 660 nM.
Regarding `CC[C@]1(O)C[C@@H]2CN(CCc3c([nH]c4ccccc34)[C@@](C(=O)OC)(c3cc4c(cc3OC)N(C)[C@H]3[C@@](O)(C(=O)OC)[C@H](OC(C)=O)[C@]5(CC)C=CCN6CC[C@]43[C@@H]65)C2)C1` [VINBLASTINE], the IC50 was 5 nM in the experiment with PC-3, 9 nM in experiment [1] and 2 nM in experiment [2].
